How the values were obtained:
[1] = system: IL-12-induced IFN-γ secretion in NK92 cells; experiment: Inhibition of IL-12-induced IFN-γ Secretion in NK92 Cells (ELISA); assay type: cell-based, human; settings: Homo sapiens, 24 hours incubation, 8 concentration points, read-out: IC50 (NK92_IL12/IFNγ)
Description: Inhibition of IL-12-induced IFN-γ Secretion in NK92 Cells
The effect of the compounds of the present invention on IFN-γ secretion induced by IL-12 in NK92 cells was evaluated by an enzyme-linked immunosorbent assay (ELISA).
IL-12 receptor is mainly expressed in activated T-cells, NK cells (NK92 is a NK cell line), DC cells, and B-cells. When binding to IL-12, it activates JAK2/TYK2 signal transduction pathway within NK cells and T lymphocytes, thereby inducing secretion of IFN-γ.
(§1) The experimental method is generally described below:
The test compound was dissolved in DMSO to 2.5 mM, followed by a serial 4-fold dilution with DMSO to a minimum concentration of […]. Each concentration was further diluted 50-fold with an FBS-free MEMα medium (Gibco, 12561-056).
NK92 cells (Nanjing Cobioer, CBP60980) were cultured in a complete MEMα medium containing 12.5% FBS (Ausbian, VS500T), 12.5% horse serum (Gibco, 16050-122), 0.02 mM folic acid (Sigma, F8758), 0.2 mM inositol (Sigma, 17850), 0.55 mM β-mercaptoethanol (Gibco, 21985-023), 200 U/mL IL-2 (R&D Systems, 202-1L), and 100 U/mL penicillin (Thermofisher, 15140122). When covering 80-90% of the culture container surface, the cells were dispersed and plated on a 96-well plate (Thermofisher, 167425) with 100,000 cells per well (80 μL of the complete MEMα medium without IL-2). The 96-well plate was then incubated overnight in a 37° C./5% CO2 incubator.
After overnight incubation, 10 μL of the test compound and 10 μL of 50 ng/mL IL-12 (R & D Systems, 219-1L) were added to each well and mix gently, and the 96-well plate was incubated in the 37° C./5% CO2 incubator for additional 24 hours. The plate as centrifuged at 800 rpm for 10 minutes at room temperature and 50 μL of the supernatant from each well was transferred to another 96-well plate (Sigma, CLS3695) coated with anti-IFN-γ antibody. The amount of IFN-γ secretion was detected following the instruction from the Human IFN-γ DuoSet ELISA kit (R & D Systems, DY285B). In the experiment, the group with IL-12 and the test compound being replaced with the MEMα medium was the non-stimulated control group (100% inhibition), and the group with IL-12 and 0.2% DMSO was the stimulated group (0% inhibition). The percentage of inhibition on IL-12 induced IFN-γ secretion in NK-92 cells by the test compound was calculated using the following formula: Percentage of inhibition=100−100*(signalcompound−signalnon-stimulated control)/(signalstimulated control−signalnon-stimulated control)
The IC50 value of the test compound was calculated front 8 concentration points using the XLfit software (ID Business Solutions Ltd., UK) by the following formula: Y=Bottom+(Top−Bottom)/(1+10^((log IC50−X)×slope factor))
(§2) Where Y was the percentage of inhibition, X was the logarithm of the concentration of the test compound, Bottom was the bottom plateau value of the S-shaped curve, Top was the top plateau value of the S-shaped curve, and slope factor was the slope coefficient of the curve.

[2] = molecular target: T1, human recombinant TYK2 protein (Homo sapiens, UniProt P29597); experiment: TYK2 Inhibition Assay (HTRF kinase assay); assay type: biochemical; settings: human recombinant TYK2, 11.25 μM ATP substrate solution
T1 construct: purchased Carna Biosciences 08-147
T1 sequence (P29597 871-1187 limits assumed): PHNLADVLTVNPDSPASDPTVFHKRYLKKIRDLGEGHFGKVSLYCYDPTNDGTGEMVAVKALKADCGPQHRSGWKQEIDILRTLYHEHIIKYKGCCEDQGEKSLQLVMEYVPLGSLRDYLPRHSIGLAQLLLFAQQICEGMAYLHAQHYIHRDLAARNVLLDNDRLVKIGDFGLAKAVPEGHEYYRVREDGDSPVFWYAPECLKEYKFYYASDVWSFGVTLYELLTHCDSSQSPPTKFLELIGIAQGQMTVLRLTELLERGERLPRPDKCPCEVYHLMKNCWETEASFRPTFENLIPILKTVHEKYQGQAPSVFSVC
Description: The effect of the compounds of the present invention on the enzymatic activity of TYK2 was assessed by detecting the substrate phosphorylation level in a kinase reaction using the HTRF kinase assay detection kit (Cisbio, Cat. No. 62TK0PEC).
as §1
A reaction buffer contained the following components: an enzyme reaction buffer (1×), 5 mM MgCl2 mM DTT and 0.01% Brij35 from the kit. A TYK2 kinase solution contained human recombinant TYK2 protein (Carna Biosciences, 08-147) diluted in the reaction buffer to 0.25 ng/μL. A substrate reaction solution contained 11.25 μM ATP and 0.5 μM of a biotinylated tyrosine kinase substrate from the kit in the reaction buffer. A detection solution contained 0.1 ng/μL Eu^3+-labeled cage antibody (Cisbio, 61T66KLB) and 25 nM streptavidin-1 added XL665 (Cisbio, 610SAXLB) in the reaction buffer.
(§3) The test compound was dissolved in DMSO to 10 μM, followed by a serial 4-fold dilution with DMSO to a minimum concentration of 0.061 nM. Each concentration was further diluted 40-fold with the reaction buffer.
(§4) To a 384-well assay plate (Corning, 3674) were added 4 μL of compound solution and 2 μL of TYK2 kinase solution. The mixture was mixed and incubated at room temperature for 15 minutes, and then added with 4 μL of the substrate reaction solution. After further incubation at room temperature for 40 minutes, the reaction mixture was added with an equal volume of 10 μL detection solution and allowed to stand at room temperature for 30 minutes. An Envision plate reader (Perkin Elmer) was then used to measure the progress of the reaction at 620 nm and 665 nm. The ratio of absorbances at 665 nm and 620 nm was positively correlated with the degree of substrate phosphorylation, therefore the activity of TYK2 kinase was detected. In the experiment, the group without TYK2 kinase protein was treated as the 100% inhibition group, and the group with TYK2 kinase protein but not the test compound was treated as the 0% inhibition group. The percentage of inhibition on TYK2 kinase activity by the test, compound was calculated using the following formula: Percentage of inhibition=100−100*(ratiocompound−ratio100% inhibition)/(ratio0% inhibition−ratio100% inhibition)
The IC50 value of the test compound was calculated from 8 concentration points using the XLfit software (ID Business Solutions Ltd., UK) by the following formula: Y=Bottom+(Top−Bottom)/(1+10^((log IC50−X)slope factor))
as §2

[3] = molecular target: T2, human recombinant JAK2 protein (Homo sapiens, UniProt O60674); experiment: JAK2 Inhibition Assay (HTRF kinase assay); assay type: biochemical; settings: human recombinant JAK2, 2.5 μM ATP substrate solution
T2 construct: purchased Carna Biosciences 08-045
T2 sequence (O60674 826-1132 limits assumed): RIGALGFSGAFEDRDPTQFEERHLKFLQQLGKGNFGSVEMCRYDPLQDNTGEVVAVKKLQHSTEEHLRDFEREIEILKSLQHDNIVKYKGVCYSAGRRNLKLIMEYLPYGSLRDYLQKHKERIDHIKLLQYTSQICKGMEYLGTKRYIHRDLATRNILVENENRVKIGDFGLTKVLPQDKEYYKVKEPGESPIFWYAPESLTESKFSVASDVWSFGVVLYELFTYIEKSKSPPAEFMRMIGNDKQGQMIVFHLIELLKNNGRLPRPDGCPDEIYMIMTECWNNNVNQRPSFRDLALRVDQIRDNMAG
Description: The effect of the compounds of the present invention on the enzymatic activity of JAK2 was assessed by detecting the substrate phosphorylation level in a kinase reaction using the HTRF kinase assay detection kit (Cisbio, Cat. No. 62TK0PEC).
as §1
A reaction buffer contained the following components: an enzyme reaction buffer (1×), 5 mM MgCl2, 1 mM DTT and 0.01% Brij35 from the kit. A JAK2 kinase solution contained a human recombinant JAK2 protein (Carna Biosciences, 08-045) diluted in the reaction buffer to 0.15 ng/μL. A substrate reaction solution contained 2.5 μM ATP and 0.25 μM of a biotinylated tyrosine kinase substrate from the kit in the reaction buffer. A detection solution contained 0.1 ng/μL Eu^3+-labeled cage antibody (Cisbio, 61T66KLB) and 12.5 nM streptavidin-labeled XL665 (Cisbio, 610SAXLB) in the reaction buffer.
as §3
as §4, with “JAK2” for “TYK2”, “30” for “40”, “test” for “test,”
The IC50 value of the test compound was calculated from 8 concentration points using the XLfit softwere (ID Business Solutions Ltd., UK) by the following formula: Y=Bottom+(Top−Bottom)/(1+10^((log IC50−X)×slope factor))
Where Y was the percentage of inhibition, X was the logarithm of the concentration of the test compound. Bottom was the bottom plateau value of the S-shaped curve, Top was the top plateau value of the S-shaped curve, and slope factor was the slope coefficient of the curve.

Structure (SMILES) | IC50 [1] | IC50 [2] | IC50 [3]
Cn1cc(Nc2ncc(F)c(N3C[C@]4(C)CN(C(=O)C5CC5)C[C@]4(C)C3)n2)cn1 [Compound 11] | 6770 nM | 21 nM | 137 nM
Cn1cc(Nc2ncc(Cl)c(N3C[C@@H]4CN(C(=O)CC#N)C[C@]4(C)C3)n2)cn1 [Compound 88, 3-((3aS,6aR)-5-(5-chloro-2-((1-methyl-1H-pyrazol-4-yl)amino)pyrimidin-4-yl)-3a-methylhexahydropyrrolo[3,4-c]pyrrol-2(1H)-yl)-3-oxopropanenitrile] | 67 nM | 0.2 nM | 0.5 nM
Cn1cc(Nc2ncc(Cl)c(N3C[C@]4(C)CN(Cc5ccno5)C[C@]4(C)C3)n2)cn1 [Compound 50, 5-chloro-4-((3aR,6aS)-5-(isoxazol-5-ylmethyl)-3a,6a-dimethylhexahydropyrrolo[3,4-c]pyrrol-2(1H)-yl)-N(1-methyl-1H-pyrazol-4-yl)pyrimidin-2-amine] | 43 nM | 0.3 nM | 0.1 nM
Cn1cc(Nc2ncc(Cl)c(N3C[C@@H]4CN(C(=O)CC(F)(F)F)C[C@]4(C)C3)n2)cn1 (racemic) [Compound 68, cis-1-(5-(5-chloro-2((1-methyl-1H-pyrazol-4-yl)amino)pyrimidin-4-yl)-3a-methylhexahydropyrrolo[3,4-c]pyrrol-2(1H)-yl)-3,3,3-trifluoropropan-1-one] | 330 nM | 1.4 nM | 31 nM
C[C@@]12CN(C(=O)C3CC3)C[C@]1(C)CN(c1nc(Nc3cn[nH]c3)ncc1Cl)C2 [Compound 23, ((3aR,6aS)-5-(2-((1H-pyrazol-4-yl)amino)-5-chloropyrimidin-4-yl)-3a,6a-dimethylhexahydropyrrolo[3,4-c]pyrrol-2(1H)-yl)(cyclopropyl)methanone] | 551 nM | 1 nM | 3 nM
Cn1cc(Nc2ncc(Cl)c(N3C[C@]4(C)CN(Cc5cn[nH]c5)C[C@]4(C)C3)n2)cn1 [Compound 79, 4-((3aR,6aS)-5-((1H-pyrazol-4-yl)methyl)-3a,6a-dimethylhexahydropyrrolo[3,4-c]pyrrol-2(1H)-yl)-5-chloro-N-(1-methyl-1H-pyrazol-4-yl)pyrimidin-2-amine] | 3970 nM | 51 nM | 40 nM
Cn1cc(Nc2ncc(Cl)c(N3C[C@@H]4CN(S(C)(=O)=O)C[C@]4(C)C3)n2)cn1 (racemic) [Compound 61, cis-5-chloro-N-(1-methyl-1H-pyrazol-4-yl)-4-(3a-methyl-5-(methylsulfonyl)hexahydropyrrolo[3,4-c]pyrrol-2(1H)-yl)pyrimidin-2-amine] | 578 nM | 1.6 nM | 8.9 nM
COCC(=O)N1C[C@@]2(C)CN(c3nc(Nc4cnn(C)c4)ncc3Cl)C[C@@]2(C)C1 [Compound 37, 1-((3aR,6aS)-5-(5-chloro-2-((1-methyl-1H-pyrazol-4-yl)amino)pyrimidin-4-yl)-3a,6a-dimethylhexahydropyrrolo[3,4-c]pyrrol-2(1H)-yl)-2-methoxyethan-1-one] | 2100 nM | 12 nM | 15 nM
CCS(=O)(=O)N1C[C@]2(C)CN(c3nc(Nc4cnn(C)c4)ncc3Cl)C[C@]2(C)C1 [Compound 41, 5-chloro-4-((3aR,6aS)-5-(ethylsulfonyl)-3a,6a-dimethylhexahydropyrrolo[3,4-c]pyrrol-2(1H)-yl)-N-(1-methyl-1H-pyrazol-4-yl)pyrimidin-2-amine] | 635 nM | 1.3 nM | 1.7 nM
Cn1cc(Nc2ncc(Cl)c(N3C[C@]4(C)CN(C(=O)C5COC5)C[C@]4(C)C3)n2)cn1 [Compound 39, ((3aR,6aS)-5-(5-chloro-2-((1-methyl-1H-pyrazol-4-yl)amino)pyrimidin-4-yl)-3a,6a-dimethylhexahydropyrrolo[3,4-c]pyrrol-2(1H)-yl)(oxetan-3-yl)methanone] | 919 nM | 4.4 nM | 11 nM

Source: patent US12448382B2, “Heterocyclic compounds for mediating tyrosine kinase 2 activity” (GUANGZHOU INNOCARE PHARMA TECH CO., LTD., priority 2019, dated 2025)
